The text below walks through data of US20250051323A1 (RICHTER GEDEON NYRT., priority 2021, published 2025).

The conditions of assay [1]: cited from earlier work.
For assay [2] the following is noted: mouse stress models and aged mice; cited from earlier work.
The conditions of assay [3]: rats, developmental models of schizophrenia; cited from earlier work.
Assay [4] deals with T1, human recombinant GABAA α5β3γ2 receptor (Homo sapiens (Human), UniProt P18507+P31644). In words: Functional assay, QPatch automated whole-cell patch clamp, modulation of GABA-evoked current. The class given is cell-based. Particulars: read-out: hGABAA α5 efficacy (percentage modulation of GABA-evoked peak current). As to the method: Human HEK293 cell lines expressing GABAAα5β3γ2 receptors were used in functional assays using the QPatch automated patch clamp system.
HEK293 cell lines stably expressing human recombinant GABAA α5β3γ2 receptor subunits (Millipore, CYL3053) were cultured in DMEM supplemented with 10% FBS (Gibco), passed two times per week and plated on Petri dishes previously coated with poly-d-lysine.
Automated whole-cell patch clamp recordings were made from cells 2-4 days after plating.
Inward currents were evoked at a holding potential of −80 mV by 3-s-long applications of the control agonist GABA at 1 μM at 2-4-min intervals first in concentration-matched DMSO (0.1 or 0.3%) control solution for five times, then in the presence of the test compound for four times, finally in control solution again for three times (wash-out). At the end of the experiment 100 μM GABA was applied to saturate the GABA-response and to assess the efficacy of the control GABA application. Current signals were low-pass filtered at 100 Hz and recorded at a sampling rate of 1 kHz.
The percentage modulation was calculated from the comparison of GABA-evoked peak current amplitudes in the presence and absence of the test compound.
On the technique in general: Patch clamp records ionic current or voltage across a cell membrane.

Assay [5] addresses T1, human recombinant GABAA α5β3γ2 receptor. In words: Binding assay, [3H]Ro151788 displacement on HEK cell membranes. Particulars: [3H]Ro151788 0.5 nM, 60 minutes at 4° C., Cheng-Prusoff; read-out: hGABAA α5 Ki. As for the experimental part: The GABAA α5β3γ2 protein used for the receptor binding assay was derived from membranes produced from HEK cells (Millipore CYL3073) expressing the human recombinant GABAA α5β3γ2 receptor. Cells were stored and cultured in-house according to the instructions provided by the vendor (Millipore). Cell pellet was homogenized in 10 times modified Krebs Henseleit buffer (membrane preparation buffer): 20 mM Tris, 120 mM NaCl, 100 mM KCl, 25 mM CaCl2 and 25 mM MgCl2 pH=7.4 at 4° C. using Ultra Turrax (Janke&Kunkel) maximal speed for 15 seconds. The homogenate was centrifuged at 40,000 g for 30 minutes at 4° C. Supernatant was discarded and the resulting pellet was washed in membrane preparation buffer. Pellet was resuspended in membrane preparation buffer and aliquots of 1.4 mL ampules were stored at −70° C. until use.
Receptor binding assays were performed in 96-well format in deep-well plates. For each 96-well plate one ampule of membrane homogenate was thawed and diluted in binding buffer (50 mM Tris pH=7.4, 100 mM KCl) and 200 μL was dispensed into each well. Radioligand [^3H]Ro151788 (Perkin Elmer: NET757250UC) was prepared in binding buffer and added to each well in 50 μL volume to give final concentration of 0.5 nM. Test compounds in suitable concentration(s) were added in additional 50 μL. The final assay volume was 300 μL. Incubation was carried out for 60 minutes at 4° C. For non-specific binding 10 μM unlabeled diazepam was used. […] The plate was dried at 40° C. for an hour and 40 μL Microscint (Perkin Elmer) scintillation cocktail was added to each well. The plate was read in Microbeta (Perkin Elmer).
The specific radioligand binding (SB) was defined as the difference between total binding (Tot) and the non-specific binding (NSB). Results are expressed as a percent inhibition of specific binding obtained in the presence of compound of interest.
For IC50 and Ki determination a minimum of six drug concentrations in triplicate were used. […] Ki values (i.e., inhibition constants) were calculated using the Cheng-Prusoff equation Ki=IC5O/[1+(L/KD)], where [L] is the radioligand concentration and KD the affinity of the labelled ligand for receptor. KD was determined from the Saturation analyses.

For assay [6] the following is noted: low dose; cited from earlier work.
[7] abbreviates: test compound 1 μM, GABA 1 μM, holding potential −80 mV.

Counter-ions that a name gives are not always drawn. Like-named read-outs stand apart in the source and are kept apart here.

T1 sequence (P31644 32-462): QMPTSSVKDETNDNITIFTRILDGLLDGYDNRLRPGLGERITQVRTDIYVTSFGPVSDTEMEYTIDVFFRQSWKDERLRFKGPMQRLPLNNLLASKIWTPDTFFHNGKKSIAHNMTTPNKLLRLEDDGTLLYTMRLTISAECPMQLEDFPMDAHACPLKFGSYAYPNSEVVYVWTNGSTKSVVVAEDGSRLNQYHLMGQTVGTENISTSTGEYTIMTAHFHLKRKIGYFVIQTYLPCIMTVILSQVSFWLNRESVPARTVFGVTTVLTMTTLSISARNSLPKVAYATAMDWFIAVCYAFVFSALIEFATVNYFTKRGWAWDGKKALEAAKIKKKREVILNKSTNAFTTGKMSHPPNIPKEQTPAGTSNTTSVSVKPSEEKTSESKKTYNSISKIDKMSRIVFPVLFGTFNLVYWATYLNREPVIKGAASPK
T1 sequence (P28472 26-473 partner): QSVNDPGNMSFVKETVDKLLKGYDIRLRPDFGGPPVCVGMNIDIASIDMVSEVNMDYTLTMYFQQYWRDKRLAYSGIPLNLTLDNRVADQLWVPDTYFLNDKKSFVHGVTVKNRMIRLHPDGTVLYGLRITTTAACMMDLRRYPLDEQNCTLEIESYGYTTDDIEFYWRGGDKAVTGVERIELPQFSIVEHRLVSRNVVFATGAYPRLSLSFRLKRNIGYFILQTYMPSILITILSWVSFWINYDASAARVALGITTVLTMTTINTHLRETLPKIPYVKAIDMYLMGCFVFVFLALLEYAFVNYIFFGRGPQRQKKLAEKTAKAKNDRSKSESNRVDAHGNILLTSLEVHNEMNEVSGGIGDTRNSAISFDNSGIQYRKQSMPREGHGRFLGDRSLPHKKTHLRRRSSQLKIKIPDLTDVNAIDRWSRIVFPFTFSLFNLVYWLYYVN
T1 sequence (P18507 40-475): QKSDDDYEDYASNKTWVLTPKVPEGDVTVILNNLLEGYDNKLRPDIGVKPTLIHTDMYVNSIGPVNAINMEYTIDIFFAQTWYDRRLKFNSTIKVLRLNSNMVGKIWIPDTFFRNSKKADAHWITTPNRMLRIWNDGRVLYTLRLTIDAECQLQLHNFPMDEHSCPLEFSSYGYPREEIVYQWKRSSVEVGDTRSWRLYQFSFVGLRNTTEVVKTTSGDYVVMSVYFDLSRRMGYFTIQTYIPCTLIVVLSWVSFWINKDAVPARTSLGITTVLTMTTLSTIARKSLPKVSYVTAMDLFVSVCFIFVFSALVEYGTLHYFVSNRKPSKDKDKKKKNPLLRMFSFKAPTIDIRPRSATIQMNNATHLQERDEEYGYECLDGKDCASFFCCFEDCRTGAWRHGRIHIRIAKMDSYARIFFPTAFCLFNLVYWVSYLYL

As to `Cc1ccc(-n2nnc(C)c2COc2cc3c(nn2)CNCC3)cn1` [Compound 44], the cognitive performance result in assay [1] (aged rats) is on record as “improved cognitive performance”.
As for `C#Cc1ccc2c(c1)C(c1ccccc1F)=N[C@H](C)c1c(C(=O)OCC)ncn1-2` [SH-053-2′F—R—CH3], in assay [2], the behavioural effects entry was “procognitive, anxiolytic and antidepressant effects”. For the same compound, in assay [3], the “pathological changes of locomotor activity” value is recorded as “attenuated pathological changes of locomotor activity”.
The Ki is a dissociation constant, usually derived from enzyme kinetics or from competition with a known ligand. For `Cc1ccc(-n2nnc(C)c2COc2cc3c(cn2)CN(C2CCOCC2)CC3)cn1` [Example 33, 6-{[4-methyl-1-(6-methylpyridin-3-yl)-1H-1,2,3-triazol-5-yl]methoxy}-2-(oxan-4-yl)-1,2,3,4-tetrahydro-2,7-naphthyridine], the activation at 1 µM in assay [4] (setting [7]) came out at 71%. In addition, in assay [5], the Ki came to 29.5 nM.
The matching figures for `Cc1onc(-c2ccc(C(F)(F)F)nc2)c1COc1cc2c(cn1)CN(C1CCOC1)CC2` (stereo not shown) [Example 8, 6-({5-methyl-3-[6-(trifluoromethyl)pyridin-3-yl]-1,2-oxazol-4-yl}methoxy)-2-(oxolan-3-yl)-1,2,3,4-tetrahydro-2,7-naphthyridine]: 133% and 11.2 nM.
As to `O=C1CN=C(c2ccccc2Cl)c2cc([N+](=O)[O-])ccc2N1` [clonazepam], the “symptoms in preclinical models of ASD” value in assay [6] is reported as “ameliorate symptoms”.
Consider `Cc1nnn(-c2ccc(C(F)F)nc2)c1COc1cc2c(cn1)CN(C1CCOC1)CC2` (stereo not shown) [Example 30, 6-({1-[6-(difluoromethyl)pyridin-3-yl]-4-methyl-1H-1,2,3-triazol-5-yl}methoxy)-2-(oxolan-3-yl)-1,2,3,4-tetrahydro-2,7-naphthyridine], for which, in assay [4] (setting [7]), the activation at 1 µM was found to be 59%. In addition, the Ki in assay [5] was 3.3 nM.
The matching figures for `Cc1ccc(-n2nnc(C)c2COc2cc3c(cn2)CN(C)CC3)cn1` [Example 21, 2-methyl-6-{[4-methyl-1-(6-methylpyridin-3-yl)-1H-1,2,3-triazol-5-yl]methoxy}-1,2,3,4-tetrahydro-2,7-naphthyridine]: 134% and 23 nM.
In the case of `Cc1ccc(-c2noc(C)c2COc2cc3c(cn2)CNCC3)cn1` [Example 1, 6-{[5-methyl-3-(6-methylpyridin-3-yl)-1,2-oxazol-4-yl]methoxy}-1,2,3,4-tetrahydro-2,7-naphthyridine trifluoroacetic acid salt], in assay [4], the activation at 1 µM worked out at 155%. Besides, the Ki in assay [5] is 3.9 nM.
As to `Cc1ccc(-c2noc(C)c2COc2cc3c(cn2)CN(C2COC2)CC3)cn1` [Example 10, 6-{[5-methyl-3-(6-methylpyridin-3-yl)-1,2-oxazol-4-yl]methoxy}-2-(oxetan-3-yl)-1,2,3,4-tetrahydro-2,7-naphthyridine], the activation at 1 µM in assay [4] (setting [7]) is 131%. For the same compound, the Ki in assay [5] came to 4.5 nM.
In the case of `Cc1ccc(-n2nnc(C)c2COc2cc3c(nn2)CN(CC2CCC2)CC3)cn1` [Example 45, 5-[5-({[7-(cyclobutylmethyl)-5H,6H,7H,8H-pyrido[3,4-c]pyridazin-3-yl]oxy}methyl)-4-methyl-1H-1,2,3-triazol-1-yl]-2-methylpyridine tartarate salt], in assay [4], the activation at 1 µM was found to be 97%. For the same compound, the Ki in assay [5] worked out at 99.5 nM.
With `Cc1onc(-c2ccc(C(F)(F)F)nc2)c1COc1cc2c(nn1)CN(CC1CCS(=O)(=O)C1)CC2` (stereo not shown) [Example 19, 3-{[3-({5-methyl-3-[6-(trifluoromethyl)pyridin-3-yl}-1,2-oxazol-4-yl]methoxy)-5H,6H,7H,8H-pyrido[3,4-c]pyridazin-7-yl]methyl}-1lambda6-thiolane-1,1-dione tartarate salt], in assay [4], the activation at 1 µM turned out to be 129%. Further, the Ki in assay [5] came to 35.5 nM.
Consider `Cc1ccc(-c2noc(C)c2COc2cc3c(nn2)CNCC3)cn1` [Example 14, 2-methyl-5-[5-methyl-4-({5H,6H,7H,8H-pyrido[3,4-c]pyridazin-3-yloxy}methyl)-1,2-oxazol-3-yl]pyridine], for which the activation at 1 µM in assay [4] (setting [7]) was 126%. Besides, the Ki in assay [5] was 3.2 nM.
Regarding `C#Cc1ccc2c(c1)C(c1ccccc1F)=N[C@H](C)c1c(C(=O)NC)ncn1-2` [MP-III-022], in assay [2], the behavioural effects entry is “procognitive, anxiolytic and antidepressant effects”. Further, the cognitive performance result in assay [1] (young rats) was “improved cognitive performance”. Also, the “pathological changes of locomotor activity” value in assay [3] is “attenuated pathological changes of locomotor activity”.
